Assay results reported in paper PMC7920280, “The Multi-Targeting Ligand ST-2223 with Histamine H3 Receptor and Dopamine D2/D3 Receptor Antagonist Properties Mitigates Autism-Like Repetitive Behaviors and Brain Oxidative Stress in Mice” (International Journal of Molecular Sciences, 2021).

What was measured:
Type in all cases: in vivo
BTBR and B6 mice = assay: Spontaneous alternation behavior (SAB), Y maze; details: i.p., ST-2223 2.5, 5 and 10 mg/kg, MEM 5 mg/kg, ARP 1 mg/kg
Experimental: The drugs tested included ST-2223 [N-(4-(4-(2-methoxyphenyl)piperazin-1-yl)butyl)-6-(3-(piperidin-1-yl)propoxy)-2-naphthamide] that was designed and synthesized in the Institute of Pharmaceutical and Medicinal Chemistry, Heinrich Heine University Düsseldorf, Germany, and in accordance with previously described methodologies (Supplementary Materials). Aripiprazole (ARP) (1 mg/kg, i.p.) and memantine (MEM, 5 mg/kg, i.p.), as reference drugs, were purchased from Sigma-Aldrich (St. Louis, MO, USA). The CNS-penetrant H3R agonist (R)-α-methylhistamine (RAM, 10 mg/kg, i.p.) was purchased from Sigma-Aldrich, St. Louis, MO, USA. T. Protease and the phosphatase inhibitor cocktail were procured from Thermo Scientific, USA. The assay kit for reduced glutathione (GSH) was obtained from Sigma-Aldrich (St. Louis, MO, USA). The lipid peroxidation assay kit for estimation of malondialdehyde (MDA) was purchased from North West Life Science (Vancouver, WA, USA). The assay kits for superoxide dismutase (SOD) and catalase (CAT) were purchased from Cayman Chemical (Ann Arbor, MI, USA). The drugs were prepared daily using 1% dimethyl sulfoxide (DMSO) in 0.9% saline, for intraperitoneal (i.p.) administration at a volume of 10 mL/kg of body weight. Vehicle treatment consisted of 1% DMSO in 0.9% normal saline. All drugs were i.p. administered 30 min before the behavioral test. The doses of these drugs were chosen based on previous reports. Neurobehavioral assessment was performed blindly with respect to experimental group and drug administration.
The SAB test is based on the exploratory strategy of rodents to explore a new environment. In examining repetitive behaviors, the Y maze test took advantage of the rodents’ natural tendency to spontaneously alternate or choose a different arm of the maze instead of the one they visited on their previous entry (i.e., least recently visited arm). A decrease in the percentage alternation can also be attributed to same arm repeated visits. Spontaneous alternation behavior was measured on a Y maze apparatus, as previously described, with slight modifications. The Y maze composed of three arms (30 cm × 6 cm × 15 cm), where the arms were labeled with letters: A, B, or C. The test mouse was placed in the center of the maze and was allowed to freely explore the maze for 8 min. The number of entries into each arm and the total number of entries were recorded by the observer. A spontaneous alternation was defined as successive entry into three arms on an overlapping triplet set. Percentage spontaneous alternation was calculated as the number of spontaneous alternations (actual alternations) over the total number of entries (possible alternations). Two arm entries were subtracted from the denominator because an alternation required at least 3 entries. The apparatus was cleaned with 70% alcohol solution after each mouse was tested. (1) Percentage spontaneous alternations=Total alternations/(Total arm entries − 2) ×100

malondialdehyde (MDA) = assay: Malondialdehyde (MDA) assay in brain parts of treated BTBR mice; details: i.p., ST-2223 5 mg/kg, RAM 10 mg/kg, ARP 1 mg/kg, MEM 5 mg/kg, mean ± SEM; for MDA, Striatum: n = 3-6, BTBR vehicle 52.7 ± 3.4; for MDA, Hippocampus: n = 3-6, BTBR vehicle 53.8 ± 2.9; for MDA, Cerebellum: n = 3-6, BTBR vehicle 54.0 ± 6.4; for MDA, Prefrontal Cortex: n = 3-6, BTBR vehicle 58.3 ± 1.8
Experimental: (§1) At the end of the behavioral assessments, the animals were sacrificed following previously published protocols. Animals were anesthetized with pentobarbital (40 mg/kg, body weight, i.p.), sacrificed, and perfused via intracardial infusion to wash out the blood, using 1× PBS (0.01 M phosphate buffer, 0.0027 M potassium chloride and 0.137 M sodium chloride) at pH 7.4. […] The brains were then quickly removed and placed on an ice plate. The cerebellum, hippocampus, prefrontal and striatum were excised from the brain and snap-frozen in liquid nitrogen for further use in biochemical assessments. On the day of the biochemical tests, the tissues were homogenized using radioimmunoprecipitation assay (RIPA) buffer (50 mM Tris HCl, pH 7.4, 140 mM NaCl, 1 mM EDTA, 0.5% Triton X-100 and 0.5% sodium deoxycholate) supplemented with protease and phosphatase inhibitors. Then, the homogenates were centrifuged at 14,000 rpm for 30 min (4 °C), and the supernatant was used for evaluation of lipid peroxidation, glutathione, and antioxidant enzymes using spectrophotometric measurements and enzyme-linked immunosorbent assays (ELISA)..
This assay was performed to estimate the amount of lipid peroxidation in experimental animals using an MDA detection kit following the manufacturer’s instructions, as previously described in our laboratories. Briefly, 250 μL of sample or calibrator was incubated with thiobarbituric acid, followed by rigorous vortexing. After 1 h incubation at 60 °C, the mixture was centrifuged at 10,000× g for 2–3 min and the reaction mixture was transferred to a cuvette. Spectra were measured at 532 nm and the results are expressed as µM MDA/mg protein.

[1] = system: superoxide dismutase (SOD); assay: Superoxide dismutase (SOD) activity in brain parts of treated BTBR mice; details: i.p., ST-2223 5 mg/kg, RAM 10 mg/kg, ARP 1 mg/kg, MEM 5 mg/kg, mean ± SEM; for SOD, Prefrontal Cortex: n = 3-6, BTBR vehicle 45.1 ± 2.8; for SOD, Hippocampus: n = 3-6, BTBR vehicle 49.5 ± 0.5; for SOD, Cerebellum: n = 3-6, BTBR vehicle 49.7 ± 1.3; for SOD, Striatum: n = 3-6, BTBR vehicle 51.8 ± 1.2
Experimental: as §1
To assess the activity of antioxidant enzymes Superoxide dismutase (SOD) and Catalase (CAT), commercially available kits were used, following the manufacturer’s instructions, and as previously reported. Cayman assay kits (Cayman Chemicals Company, Ann Arbor, MI, USA) were used to assess antioxidant enzyme (superoxide dismutase (SOD) and catalase (CAT)) activities in experimental animals. Catalase assay: Twenty microliters of samples or standards and 30 μL of methanol was added to the assay buffer (100 μL) in 96-well plates. To this mixture, twenty microliter of hydrogen peroxide was added and incubated for 20 min at room temperature (RT) to initiate the reaction. Following incubation, 30 μL of potassium hydroxide was used to terminate the reaction, followed by subsequent addition of catalase purpald (30 μL) and catalase potassium periodate (10 μL). The plate was incubated for 5 min at room temperature in a shaker and the plate was read at 540 nm using a microplate reader. Catalase activity was expressed as nmol/min/mg protein. Superoxide dismutase assay: ten microliters of sample or standard was added in 96-well plates. Twenty microliters of xanthine oxidase were added to initiate the reaction. The reaction mixture was mixed for few seconds and incubated (covered) for 30 min at room temperature (RT). Absorbance was read at 450 nm using microplate reader. The activity of SOD was expressed as units/mg protein.

Structure (SMILES)	percentage of spontaneous alternation vs vehicle-treated B6 mice (BTBR and B6 mice)	percentage of spontaneous alternation vs vehicle-treated BTBR mice (BTBR and B6 mice)	MDA, Striatum (malondialdehyde (MDA))	MDA, Hippocampus (malondialdehyde (MDA))	MDA, Cerebellum (malondialdehyde (MDA))	MDA, Prefrontal Cortex (malondialdehyde (MDA))	SOD, Prefrontal Cortex [1]	SOD, Hippocampus [1]	SOD, Cerebellum [1]	SOD, Striatum [1]
O=C1CCc2ccc(OCCCCN3CCN(c4cccc(Cl)c4Cl)CC3)cc2N1 [ARP, aripiprazole]	did not alter	failed to significantly mitigate	41.2 ± 1.4 µM MDA/mg protein	32.9 ± 4.1 µM MDA/mg protein	36.8 ± 1.8 µM MDA/mg protein	43.0 ± 2.5 µM MDA/mg protein	54.0 ± 5.2 units/mg protein	51.8 ± 2.0 units/mg protein	56.4 ± 1.1 units/mg protein	65.7 ± 7.7 units/mg protein
CC12CC3CC(C)(C1)CC(N)(C3)C2 [MEM, memantine]	did not alter	significantly increased	32.6 ± 4.1 µM MDA/mg protein	32.8 ± 3.4 µM MDA/mg protein	26.7 ± 3.6 µM MDA/mg protein	40.0 ± 5.7 µM MDA/mg protein	44.9 ± 2.2 units/mg protein	41.4 ± 3.4 units/mg protein	64.4 ± 3.1 units/mg protein	66.47 ± 4.4 units/mg protein
COc1ccccc1N1CCN(CCCCNC(=O)c2ccc3cc(OCCCN4CCCCC4)ccc3c2)CC1 [ST-2223, N-(4-(4-(2-methoxyphenyl)piperazin-1-yl)butyl)-6-(3-(piperidin-1-yl)propoxy)-2-naphthamide]	did not alter	significantly increased	34.5 ± 5.5 µM MDA/mg protein	38.1 ± 3.1 µM MDA/mg protein	35.2 ± 1.8 µM MDA/mg protein	39.1 ± 3.2 µM MDA/mg protein	43.2 ± 3.4 units/mg protein	48.1 ± 4.2 units/mg protein	64.3 ± 1.0 units/mg protein	51.2 ± 7.7 units/mg protein
